Results as given in patent US20210107874A1, “PHARMACEUTICAL FORMULATION OF CROTONYLAMINOPYRIDINE SALT” (priority 2017, published 2021).

Columns and labels:
[1] = Formulation with 10% compound 5: stability of clear solution; format: physicochemical; conditions: 10% formulation (~100 mg/ml)
[2] = Visual solubility test of compound 5 in aqueous acid solution; format: physicochemical
Method: A visual solubility test (100 μL) at a series of target concentrations of 50, 100 or 200 mg/mL of compound 5 in aqueous acid solution was performed.
In a 96 well plate (400-600 μL), compound 5 was dispensed (5, 10, or 20 mg per well), acid was added (100 μl of a 350 mM solution in water to each well) and the mixtures were equilibrated at 25° C. with stirring. Solubility was checked by visual inspection after 30 min and after one day.

[3] = Acetic Acid 350 mM in water, 25° C.
[4] = Ethanesulfonic Acid 350 mM in water
[5] = Glucuronic Acid 350 mM in water
[6] = Glutamic Acid 350 mM in water, 25° C.
[7] = Methanesulfonic Acid 350 mM in water
[8] = Methanesulfonic Acid 350 mM in water, 25° C.
[9] = Nicotinic Acid 350 mM in water, 25° C.
[10] = Oxoglutaric Acid 350 mM in water
[11] = lsethionic Acid 350 mM in water
[12] = lsethionic Acid 350 mM in water, 25° C.

## COc1cc(NCCNC(=O)/C=C/C(C)(F)F)ccn1 [Compound 5]
[1]; pH of 4.4, equimolar Citric acid
  stability (remains clear solution): 3 months
[1]; pH of 4.4, equimolar Malic acid
  stability (remains clear solution): 3 months
[1]; pH of 4.4, equimolar Tartaric acid
  stability (remains clear solution): 3 months
[2]; Acetic Acid 350 mM in water
  pH for 50 mg/mL: 5.09
  pH for 100 mg/mL: 5.02
  pH for 200 mg/mL: 5.06
[2]; [3]
  Range at 1 Day: <58 mg/mL
  Range at 30 mins.: <58 mg/mL
[2]; Benzoic Acid 350 mM in water
  pH for 50 mg/mL: 4.94
  pH for 100 mg/mL: 5.23
  pH for 200 mg/mL: 5.20
[2]; Citric Acid 350 mM in water
  pH for 50 mg/mL: 3.36
  pH for 100 mg/mL: 4.06
  pH for 200 mg/mL: 4.84
[2]; [4]
  pH for 50 mg/mL: 0.96
  pH for 100 mg/mL: 1.17
  pH for 200 mg/mL: 4.99
[2]; Fumaric Acid 350 mM in water
  pH for 50 mg/mL: 3.59
  pH for 100 mg/mL: 3.89
  pH for 200 mg/mL: 4.86
[2]; [5]
  pH for 50 mg/mL: 3.60
  pH for 100 mg/mL: 4.86
  pH for 200 mg/mL: 4.80
[2]; Glutamic Acid 350 mM in water
  pH for 50 mg/mL: 5.11
  pH for 100 mg/mL: 5.05
  pH for 200 mg/mL: 5.14
[2]; [6]
  Range at 1 Day: <53 mg/mL
  Range at 30 mins.: <53 mg/mL
[2]; Lactic Acid 350 mM in water
  pH for 50 mg/mL: 4.50
  pH for 100 mg/mL: 4.88
  pH for 200 mg/mL: 4.94
[2]; Malic Acid 350 mM in water
  pH for 50 mg/mL: 3.68
  pH for 100 mg/mL: 4.45
  pH for 200 mg/mL: 4.78
[2]; [7]
  pH for 50 mg/mL: 7.60
  pH for 100 mg/mL: 7.61
  pH for 200 mg/mL: 7.31
[2]; [8]
  Range at 1 Day: <52 mg/mL
  Range at 30 mins.: <52 mg/mL
[2]; Nicotinic Acid 350 mM in water
  pH for 50 mg/mL: 5,25
  pH for 100 mg/mL: 5.15
  pH for 200 mg/mL: 5.16
[2]; [9]
  Range at 1 Day: <74 mg/mL
  Range at 30 mins.: <74 mg/mL
[2]; Oxalic Acid 350 mM in water
  pH for 50 mg/mL: 1.81
  pH for 100 mg/mL: 3.27
  pH for 200 mg/mL: 4.81
[2]; [10]
  pH for 50 mg/mL: 2.66
  pH for 100 mg/mL: 4.17
  pH for 200 mg/mL: 4.89
[2]; Succinic Acid 350 mM in water
  pH for 50 mg/mL: 4.57
  pH for 100 mg/mL: 5.01
  pH for 200 mg/mL: 4.99
[2]; Tartaric Acid 350 mM in water
  pH for 50 mg/mL: 2.92
  pH for 100 mg/mL: 3.71
  pH for 200 mg/mL: 4.70
[2]; aqueous acid solution, aqueous buffer, thermodynamic from solid, Benzoic Acid 350 mM in water, 25° C., read-out: Range at 30 mins.
  solubility at 30 min: < 49 mg/mL
[2]; [11]
  pH for 50 mg/mL: 7.83
  pH for 100 mg/mL: 7.85
  pH for 200 mg/mL: 7.93
[2]; [12]
  Range at 1 Day: <52 mg/mL
  Range at 30 mins.: <52 mg/mL
[2]; with nicotinic acid, methanesulfonic acid, isethionic acid, benzoic acid, acetic acid and glutamic acid
  solubility (in words): poor solubility
[2]; with tartaric acid, fumaric acid, citric acid, malic acid, oxalic acid, oxoglutaric acid and ethanesulfonic acid
  solubility (in words): good solubility
